# In patent US9072734B2, “Quaternary ammonium salt compounds” (Teijin Pharma Limited, priority 2009, dated 2015):
# Where a name gives a salt, the structure may show the parent alone.
# Experiments:
# [1] = target: T1, human M3 muscarinic receptor (Homo sapiens, UniProt P20309); experiment: Inhibitory effect on methacholine-induced calcium influx, FLIPR assay, CHO-K1 cells stably expressing the human M3 muscarinic receptor; assay type: cell-based; conditions: inhibition of calcium influx induced by methacholine
# T1 construct: expressed in transfected cells; host or cells: CHO-K1
# T1 sequence (P20309 whole entry): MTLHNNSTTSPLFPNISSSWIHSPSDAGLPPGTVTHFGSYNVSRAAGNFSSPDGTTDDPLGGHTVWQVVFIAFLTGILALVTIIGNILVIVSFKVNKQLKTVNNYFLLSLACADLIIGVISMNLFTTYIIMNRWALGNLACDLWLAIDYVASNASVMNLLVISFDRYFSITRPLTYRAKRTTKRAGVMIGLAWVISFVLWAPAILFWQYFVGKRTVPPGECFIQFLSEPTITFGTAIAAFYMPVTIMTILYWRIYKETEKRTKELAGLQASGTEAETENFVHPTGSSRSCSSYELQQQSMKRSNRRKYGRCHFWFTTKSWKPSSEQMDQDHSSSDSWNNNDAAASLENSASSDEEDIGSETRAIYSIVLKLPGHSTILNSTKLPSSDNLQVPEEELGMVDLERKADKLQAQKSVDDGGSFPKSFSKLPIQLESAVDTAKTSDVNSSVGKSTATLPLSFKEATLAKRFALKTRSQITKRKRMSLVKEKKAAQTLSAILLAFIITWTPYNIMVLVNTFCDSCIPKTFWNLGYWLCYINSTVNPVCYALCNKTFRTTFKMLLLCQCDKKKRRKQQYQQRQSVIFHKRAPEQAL
# Outline: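 Dye-loaded hM3 CHO-K1 cells were preincubated 180 s with compound solutions prepared at 10 two-fold concentrations (0.01–1000 nM). A 30 nM methacholine solution was then added. Fluorescence was traced for 170 s; max−min signal gave % inhibition against agonist and no-agonist controls, and IC50 came from a four-parameter logistic fit.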
# [2] = target: T2, human β2 adrenergic receptor (Homo sapiens, UniProt P07550); experiment: Whole-cell cAMP Flashplate assay using CHO-K1 cells stably expressing human β2 adrenergic receptor; assay type: cell-based; conditions: cAMP production
# T2 construct: expressed in transfected cells; host or cells: CHO-K1
# T2 sequence (P07550 whole entry): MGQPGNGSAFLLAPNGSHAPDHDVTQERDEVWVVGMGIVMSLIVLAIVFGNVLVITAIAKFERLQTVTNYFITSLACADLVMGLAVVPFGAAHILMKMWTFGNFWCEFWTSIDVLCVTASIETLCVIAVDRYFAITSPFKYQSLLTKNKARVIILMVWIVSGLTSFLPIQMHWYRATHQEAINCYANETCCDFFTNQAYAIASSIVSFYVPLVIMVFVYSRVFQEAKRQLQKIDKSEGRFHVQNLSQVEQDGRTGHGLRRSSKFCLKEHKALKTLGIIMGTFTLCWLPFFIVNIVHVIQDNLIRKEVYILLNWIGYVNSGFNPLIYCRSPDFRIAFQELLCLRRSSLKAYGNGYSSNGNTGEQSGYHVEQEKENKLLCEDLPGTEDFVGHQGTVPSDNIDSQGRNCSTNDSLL
IC50 [1] [nM],EC50 [2] [nM],Compound
34.3,2.6,"C[N+]1(C)CCC(OC(=O)Nc2cc(CCCC(=O)Nc3ccc4cc(CNC[C@H](O)c5ccc(O)c6[nH]c(=O)ccc56)ccc4c3)ccc2-c2ccccc2)CC1 [Example 23, 4-({[5-(3-{[6-({[(2R)-2-hydroxy-2-(8-hydroxy-2-oxo-1,2-dihydroquinolin-5-yl)ethyl]amino}methyl)naphthalen-2-yl]carbamoyl}propyl)-2-phenylphenyl]carbamoyl}oxy)-1,1-dimethylpiperidin-1-ium trifluoroacetate]"
16.8,3.8,"COc1cc(CNC[C@H](O)c2ccc(O)c3[nH]c(=O)ccc23)ccc1NC(=O)CCCc1ccc(-c2ccccc2)c(NC(=O)OC2CC[N+](C)(C)CC2)c1 [Example 21, 4-({[5-(3-{[4-({[(2R)-2-hydroxy-2-(8-hydroxy-2-oxo-1,2-dihydroquinolin-5-yl)ethyl]amino}methyl)-2-methoxyphenyl]carbamoyl}propyl)-2-phenylphenyl]carbamoyl}oxy)-1,1-dimethylpiperidin-1-ium trifluoroacetate]"
8.5,3,"Cc1cc(CNC[C@H](O)c2ccc(O)c3[nH]c(=O)ccc23)ccc1NC(=O)CCc1ccc(-c2ccccc2)c(NC(=O)OC2C[C@@H]3[C@H]4O[C@H]4[C@H](C2)[N+]3(C)C)c1 (stereo partly drawn) [Example 43, (1R,2R,4S,5S,7S)-7-({[5-(2-{[4-({[(2R)-2-hydroxy-2-(8-hydroxy-2-oxo-1,2-dihydroquinolin-5-yl)ethyl]amino}methyl)-2-methylphenyl]carbamoyl}ethyl)-2-phenylphenyl]carbamoyl}oxy)-9,9-dimethyl-3-oxa-9-azatricyclo[3.3.1.0^2,4]nonan-9-ium trifluoroacetate]"
13.5,5.1,"Cc1cc(NC(=O)CCc2ccc(-c3ccccc3)c(NC(=O)OC3CC[N+](C)(C)CC3)c2)ccc1CNC[C@H](O)c1ccc(O)c2[nH]c(=O)ccc12 [Example 8, 4-({[5-(2-{[4-({[(2R)-2-hydroxy-2-(8-hydroxy-2-oxo-1,2-dihydroquinolin-5-yl)ethyl]amino}methyl)-3-methylphenyl]carbamoyl}ethyl)-2-phenylphenyl]carbamoyl}oxy)-1,1-dimethylpiperidin-1-ium trifluoroacetate]"
27.6,1.7,"C[N+]1(C)[C@@H]2CC(OC(=O)Nc3cc(CCCCC(=O)Nc4ccc(CNC[C@H](O)c5ccc(O)c6[nH]c(=O)ccc56)cc4)ccc3-c3ccccc3)C[C@H]1[C@@H]1O[C@@H]12 (stereo partly drawn) [Example 50, (1R,2R,4S,5S,7S)-7-({[5-(4-{[4-({[(2R)-2-hydroxy-2-(8-hydroxy-2-oxo-1,2-dihydroquinolin-5-yl)ethyl]amino}methyl)phenyl]carbamoyl}butyl)-2-phenylphenyl]carbamoyl}oxy)-9,9-dimethyl-3-oxa-9-azatricyclo[3.3.1.0^2,4]nonan-9-ium trifluoroacetate]"
14.5,5.1,"C[N+]1(C)CCC(OC(=O)Nc2cc(CCC(=O)Nc3ccc(CNC[C@H](O)c4ccc(O)c5[nH]c(=O)ccc45)c(F)c3)ccc2-c2ccccc2)CC1 [Example 7, 4-({[5-(2-{[3-fluoro-4-({[(2R)-2-hydroxy-2-(8-hydroxy-2-oxo-1,2-dihydroquinolin-5-yl)ethyl]amino}methyl)phenyl]carbamoyl}ethyl)-2-phenylphenyl]carbamoyl}oxy)-1,1-dimethylpiperidin-1-ium trifluoro acetate]"
20.9,0.9,"C[N+]1(C)CCC(OC(=O)Nc2ccc(CCCC(=O)Nc3ccc(CNC[C@H](O)c4ccc(O)c5[nH]c(=O)ccc45)cc3)cc2-c2ccccc2)CC1 [Example 54, 4-({[4-(3-{[4-({[(2R)-2-hydroxy-2-(8-hydroxy-2-oxo-1,2-dihydroquinolin-5-yl)ethyl]amino}methyl)phenyl]carbamoyl}propyl)-2-phenylphenyl]carbamoyl}oxy)-1,1-dimethylpiperidin-1-ium trifluoroacetate]"
13.6,4.8,"C[N+]1(C)CCC(OC(=O)Nc2cc(CCCC(=O)Nc3ccc(CNC[C@H](O)c4ccc(O)c5[nH]c(=O)ccc45)c(Cl)c3)ccc2-c2ccccc2)CC1 [Example 29, 4-({[5-(3-{[3-chloro-4-({[(2R)-2-hydroxy-2-(8-hydroxy-2-oxo-1,2-dihydroquinolin-5-yl)ethyl]amino}methyl)phenyl]carbamoyl}propyl)-2-phenylphenyl]carbamoyl}oxy)-1,1-dimethylpiperidin-1-ium trifluoroacetate]"
32.8,0.4,"COc1cc(NC(=O)CCCCc2ccc(-c3ccccc3)c(NC(=O)OC3C[C@@H]4[C@H]5O[C@H]5[C@H](C3)[N+]4(C)C)c2)c(Cl)cc1CNC[C@H](O)c1ccc(O)c2[nH]c(=O)ccc12 (stereo partly drawn) [Example 52, (1R,2R,4S,5S,7S)-7-({[5-(4-{[2-chloro-4-({[(2R)-2-hydroxy-2-(8-hydroxy-2-oxo-1,2-dihydroquinolin-5-yl)ethyl]amino}methyl)-5-methoxyphenyl]carbamoyl}butyl)-2-phenylphenyl]carbamoyl}oxy)-9,9-dimethyl-3-oxa-9-azatricyclo[3.3.1.0^2,4]nonan-9-ium trifluoro acetate]"
12.9,6.2,"COc1cc(CNC[C@H](O)c2ccc(O)c3[nH]c(=O)ccc23)ccc1NC(=O)CCc1ccc(-c2ccccc2)c(NC(=O)O[C@@H]2C[C@@H]3[C@H]4O[C@H]4[C@H](C2)[N+]3(C)C)c1 [Example 41, (1R,2R,4S,5S,7S)-7-({[5-(2-{[4-({[(2R)-2-hydroxy-2-(8-hydroxy-2-oxo-1,2-dihydroquinolin-5-yl)ethyl]amino}methyl)-2-methoxyphenyl]carbamoyl}ethyl)-2-phenylphenyl]carbamoyl}oxy)-9,9-dimethyl-3-oxa-9-azatricyclo[3.3.1.0^2,4]nonan-9-ium trifluoroacetate]"
46.4,0.6,"C[N+]1(C)CCC(OC(=O)Nc2cc(OCCCCCCCCNC[C@H](O)c3ccc(O)c4[nH]c(=O)ccc34)ccc2-c2ccccc2)CC1 [Example 58, 4-[({5-[(8-{[(2R)-2-hydroxy-2-(8-hydroxy-2-oxo-1,2-dihydroquinolin-5-yl)ethyl]amino}octyl)oxy]-2-phenylphenyl}carbamoyl)oxy]-1,1-dimethylpiperidin-1-ium trifluoroacetate]"
16,4,"Cc1cc(CNC[C@H](O)c2ccc(O)c3[nH]c(=O)ccc23)ccc1NC(=O)CCCc1ccc(-c2ccccc2)c(NC(=O)O[C@@H]2C[C@@H]3[C@H]4O[C@H]4[C@H](C2)[N+]3(C)C)c1 [Example 39, (1R,2R,4S,5S,7S)-7-({[5-(3-{[4-({[(2R)-2-hydroxy-2-(8-hydroxy-2-oxo-1,2-dihydroquinolin-5-yl)ethyl]amino}methyl)-2-methylphenyl]carbamoyl}propyl)-2-phenylphenyl]carbamoyl}oxy)-9,9-dimethyl-3-oxa-9-azatricyclo[3.3.1.0^2,4]nonan-9-ium trifluoroacetate]"
16.1,8.4,"C[N+]1(C)CCC(OC(=O)Nc2cc(CCCC(=O)Nc3ccc(CNC[C@H](O)c4ccc(O)c5[nH]c(=O)ccc45)cc3)ccc2-c2ccccc2)CC1 [Example 32, 4-({[5-(3-{[4-({[(2R)-2-hydroxy-2-(8-hydroxy-2-oxo-1,2-dihydroquinolin-5-yl)ethyl]amino}methyl)phenyl]carbamoyl}propyl)-2-phenylphenyl]carbamoyl}oxy)-1,1-dimethylpiperidin-1-ium trifluoroacetate]"
11.4,5.9,"C[N+]1(C)CCC(OC(=O)Nc2cc(CCC(=O)Nc3ccc(CNC[C@H](O)c4ccc(O)c5[nH]c(=O)ccc45)cn3)ccc2-c2ccccc2)CC1 [Example 17, 4-({[5-(2-{[5-({[(2R)-2-hydroxy-2-(8-hydroxy-2-oxo-1,2-dihydroquinolin-5-yl)ethyl]amino}methyl)pyridin-2-yl]carbamoyl}ethyl)-2-phenylphenyl]carbamoyl}oxy)-1,1-dimethylpiperidin-1-ium trifluoroacetate]"
64.1,0.9,"C[N+]1(C)[C@@H]2C[C@@H](OC(=O)Nc3ccc(CCCC(=O)Nc4ccc5cc(CNC[C@H](O)c6ccc(O)c7[nH]c(=O)ccc67)ccc5c4)cc3-c3ccccc3)C[C@H]1[C@@H]1O[C@@H]12 [Example 56, (1R,2R,4S,5S,7S)-7-({[4-(3-{[6-({[(2R)-2-hydroxy-2-(8-hydroxy-2-oxo-1,2-dihydroquinolin-5-yl)ethyl]amino}methyl)naphthalen-2-yl]carbamoyl}propyl)-2-phenylphenyl]carbamoyl}oxy)-9,9-dimethyl-3-oxa-9-azatricyclo[3.3.1.0^2,4]nonan-9-ium trifluoroacetate]"
9.7,3.7,"Cc1cc(CNC[C@H](O)c2ccc(O)c3[nH]c(=O)ccc23)ccc1NC(=O)CCc1ccc(-c2ccccc2)c(NC(=O)OC2CC[N+](C)(C)CC2)c1 [Example 11, 4-({[5-(2-{[4-({[(2R)-2-hydroxy-2-(8-hydroxy-2-oxo-1,2-dihydroquinolin-5-yl)ethyl]amino}methyl)-2-methylphenyl]carbamoyl}ethyl)-2-phenylphenyl]carbamoyl}oxy)-1,1-dimethylpiperidin-1-ium trifluoroacetate]"

Compound,IC50 [1] [nM],EC50 [2] [nM]
"COc1cc(NC(=O)CCc2ccc(-c3ccccc3)c(NC(=O)O[C@@H]3C[C@@H]4[C@H]5O[C@H]5[C@H](C3)[N+]4(C)C)c2)c(Cl)cc1CNC[C@H](O)c1ccc(O)c2[nH]c(=O)ccc12 [Example 46, (1R,2R,4S,5S,7S)-7-({[5-(2-{[2-chloro-4-({[(2R)-2-hydroxy-2-(8-hydroxy-2-oxo-1,2-dihydroquinolin-5-yl)ethyl]amino}methyl)-5-methoxyphenyl]carbamoyl}ethyl)-2-phenylphenyl]carbamoyl}oxy)-9,9-dimethyl-3-oxa-9-azatricyclo[3.3.1.0^2,4]nonan-9-ium trifluoroacetate]",16.5,1.4
